Experimental data reported in patent US7569695B2, “Dyes for the detection or quantification of desirable target molecules” (Enzo Life Sciences, Inc., priority 2005, dated 2009).

What was measured:
BSA = BSA (Bos taurus, UniProt P02769); experiment: Fluorescence enhancement of dyes upon binding to a protein (BSA); conditions: ratio of fluorescence (emission maxima) with BSA vs without, 1 μM dye, 150 μg BSA; for Fluorescence Enhancement with SDS: 10 mM TRIS pH 7.5, 0.05% SDS; for Fluorescence Enhancement without SDS: 10 mM TRIS pH 7.5, no SDS
Protocol: Some of the dyes of the preceding examples were tested for changes in fluorescence upon binding to a protein (BSA). 1 μM of each dye was mixed with 150 μg of BSA in 10 mM TRIS (pH 7.5) with and without 0.05% SDS. Measurements were carried out on a standard fluorometer with and without BSA being present. Ratios were then calculated for the amount of fluorescence (emission maxima) in the presence of BSA compared to its absence.

[1] = system: 78 bp amplicon from the anti-sense C construct; experiment: Amplification of nucleic acids on the Light Cycler in the presence of dye (Example 33); assay type: biochemical
Protocol: A target template was amplified on the Light Cycler (Roche) in the presence of various amounts of Dye 109 from Example 14. As a control, various amounts of SYBR Green (Molecular Probes, Eugene, Oreg.) were also included. The template was a 1:500 dilution of a 78 bp amplicon made in a previous reaction from the anti-sense C construct described in Liu et al. 1997 (J. Virol. 71: 4079-4085). A 2×PCR mix was made up of 20 mM Tris pH 8.3, 50 mM KCl, 4 mM MgCl2, 0.4 mM dCTP, 0.4 mM dGTP, 0.4 mM dATP, 0.8 mM dUTP, […] and […].
The Forward Primer sequence is comprised of 20 nucleotides: 5′ […] 3′ (SEQ ID NO: 1). It is an artificial sequence comprising a fusion of human Ul and HIV sequences. Bases 1-7 (CATGATC) of the first sequence are derived from plasmid pHSD-4 and comprise sequences from the human Ul gene. Bases […] (GATCCGGATGGGAGGTG) of the second sequence are derived from a region of the BAL strain of HIV containing the Tat/Rev splice acceptor site.
The Reverse Primer sequence is comprised of 22 nucleotides: 5′[…] (SEQ ID NO: 2). It is an artificial sequence comprising a fusion of human Ul and HIV sequences. Bases 1-11 (GCACATCCGGA) of the first sequence are derived from plasmid pHSD-4 and comprise sequences from the human Ul gene. Bases […] (GATCCGGATGGGAGGTG) of the second sequence are derived from a region of the BAL strain of HIV containing the Tat/Rev splice acceptor site.
The 78 bp amplicon synthesized with Forward Primer (SEQ ID NO: 1) and Reverse Primer (SEQ ID NO: 2) has the following sequence: 5′ […] 3′ (SEQ ID NO: 3). It is an artificial sequence comprising a fusion of human Ul and HIV sequences. Bases 1-11 (GCACATCCGGA) and 68-78 (TCCGGATGTGC) are derived from plasmid pHSD-4 and comprise sequences from the human Ul gene. Bases […] are derived from a region of the BAL strain of HIV containing the Tat/Rev splice acceptor site.
A master mixture was made up of: • 350 µl of 2×PCR mix described above • 14 µl of 25 mM MgCl2 • 122.5 µl of DEPC treated H2O • 14 ul of 1 u/l ung (Epicentre) • 7 µl of 10 mg/ml BSA (New England Biolabs, Beverly, Mass.) • 7 l Taq polymease (Perkin Elmer)+7 µl of TaqStart (Clontech) • 2.5 µl of target template+2.0 l of various dilutions of dyes were added to 15.5 µl of Master mixture, incubated at 45° C. for 10 minutes and then amplified by: • 1) Melting • 2 minutes @ 95° C. • 2) Cycling • a) Denaturation step: 0 seconds @ 95° C. • b) Annealing step: 5 seconds @ 69° C. for first cycle; subsequent cycles were each reduced by 0.5° C. until 65° C. was reached and all annealing steps in further cycles were carried out at this temperature • c) Extension step: 5 seconds @ 72° C. • 3) After completion of 56 cycles, all samples were maintained at 4° C. until analyzed.
After the amplification reactions were finished, the samples were analyzed by gel electrophoresis. For SYBR Green, the recommended reaction concentration is 1:10,000. As such, the amplification products shown in lanes 5 and 6 using 2 l of […] dilution in a 20 l reaction (final=1:8,000) is approximately representative of the product from the standard procedure. For Dye 109, the reactions are listed in terms of dilutions of a stock of Dye 109 with an OD reading of 200 taken at 495 nm. […] However, when lower dilutions of the dyes were added there was no inhibition of the process.

[2] = system: 78 bp amplicon from the anti-sense C construct; experiment: Amplification of nucleic acids in the presence of dye using a standard PCR machine (Example 34); assay type: biochemical; conditions: for amplicon synthesis (gel analysis, FIG. 2): 20 cycles
Protocol: The experiment shown in Example 33 was repeated using a standard PCR machine for synthesis to see if the effects observed in Example 33 was dependent upon the rapid heating and cooling steps used in the Light Cycler.
A master mixture was made up of: • 500 µl of 2× PCR mix described in example 33 • 20 µl of 25 mM MgCl2 • 175 µl of DEPC treated H2O • 10 ul of 1 u/l ung (Epicentre) • 10 µl of 10 mg/ml BSA (New England Biolabs, Beverly, Mass.) • 10 l Taq polymease (Perkin Elmer)+10 µl of TaqStart (Clontech) PCR conditions were 2.5 µl of target template+2.0 l of dye was added to 15.5 µl of Master mixture incubated at 45° C. for 10 minutes and then amplified using cycles of: • a) 94° C. for 30 seconds • b) 65° C. for 30 seconds • c) 72° C. for 1 minute
A duplicate set of samples was amplified with one set being taken out after 20 cycles of amplification and the second set undergoing 40 cycles. […] The other effect previously observed was also seen, i.e. non-target amplicon synthesis seen in the no Dye reaction (lane 1) was reduced with the 1:200 dilution of SYBR Green and the 1:10 dilution of Dye 109 again repeating the results of Example 33.

[3] = system: 78 bp amplicon of the anti-sense C construct; experiment: Amplification on the Light Cycler in the presence of Dye 122 and 109a, 19 cycles (Example 35); assay type: biochemical
Text: A target template was amplified on the Light Cycler (Roche) in the presence of various amounts of SYBR Green and Dye 122 from Example 32. In addition, a byproduct from the silica gel chromatography of Dye 109 in step (g) of Example 14 was also used. This compound is believed to have a single protonation of one of the amines of Dye 109 and as such will be termed Dye 109a. The stock of Dye 122 was OD=200 measured at 488 nm and the stock of Dye 109a was OD=200 measured at 498 nm. The template was a 1:50,000 dilution of the 78 bp amplicon of the anti-sense C construct described previously. • A master-mixture was made up of: • 350 µl of 2×PCR mix described in Example 33 • 14 l of 25 mM MgCl2 • 175.0 l of DEPC treated H2O • 7 l of 10 mg/ml BSA (New England Biolabs, Beverly, Mass.) • 7 l Taq polymease (Perkin Elmer)+7 l of TaqStart (Clontech)
2.0 l of target template+2.0 l of various dye dilutions were added to 16 µl of Master mixture, and then amplified as described previously in Example 33 except that the incubation at 45° C. for 10 minutes was eliminated since ung was not used for this series of amplifications. The amplification was stopped after 19 cycles. The results of this series of amplifications are seen in FIG. 3. […] For Dye 109a, similar features were seen where 1:10 was inhibitory (lane 18) and 1:30 was optimal (lanes 19 and 20).

[4] = system: 78 bp amplicon of the anti-sense C construct; experiment: Amplification on the Light Cycler with closer series of dye dilutions, 17 cycles (Example 36); assay type: biochemical; conditions: a fairly broad spectrum of dye dilutions
Protocol: A series of dilutions that were closer together was carried out for both Dye 109a and Dye 122. The target template was amplified on the Light Cycler and the template was the 1:50,000 dilution of the 78 bp amplicon of the anti-sense C construct described previously.
A master mixture was made up as described previously in Example 35.
2.0 l of target template (1:50,000 dilution of the antisense C amplicon)+2.0 l of various dye concentrations were added to 16 µl of Master mix and then amplified as described previously in Example 33 and stopping after 17 amplification cycles.

anti-sense C amplicon = experiment: Amplification of various amounts of target with fixed dye levels, 29 cycles (Example 37); assay type: biochemical
Protocol: In the previous experiments, a fixed amount of target was amplified in the presence of varying level of dyes. The eventual use of these dyes is going to be with a fixed amount of dye and varying levels of targets. As such, an experiment was carried out using previously determined optimal levels of dyes and various amounts of input target (again using the anti-sense C as a model). • Dilution 1=1:100,000 • Dilution 2=1:1,000,000 • Dilution 3=1:10,000,000 • Dilution 4=1:100,000,000 • Dilution 5=1:1,000,000,000 • Dilution 6=1:10,000,000,000
Selected amounts of target template were amplified on the Light Cycler (Roche) in the presence of various amounts of Dye 122, Dye 109a and SYBR Green.
A master mixture was made up of: • 380 l of 2×PCR mix described in Example 33 • 15.2 l of 25 mM MgCl2 • 190.0 l of DEPC treated H2O • 7.6 l of 10 mg/ml BSA (New England Biolabs, Beverly, Mass.) • 7.6 l Taq polymease (Perkin Elmer)+7.6 l of TaqStart (Clontech)
2.0 l of target template (1:50,000 dilution of the antisense C amplicon)+2.0 l of various dye concentrations were added to 16 µl of Master mixture and amplified as described previously in Example 33 stopping after 29 cycles. Dye additions were from the 1:1000 dilution of SYBR Green, 1:30 of Dye 109a and 1:30 of Dye 122.
At the highest input level (Dil 2 1:1,000,000 dilution of amplicon) no evidence of amplification is seen in the sample without dye.

BSA, sequence (P02769 25-607): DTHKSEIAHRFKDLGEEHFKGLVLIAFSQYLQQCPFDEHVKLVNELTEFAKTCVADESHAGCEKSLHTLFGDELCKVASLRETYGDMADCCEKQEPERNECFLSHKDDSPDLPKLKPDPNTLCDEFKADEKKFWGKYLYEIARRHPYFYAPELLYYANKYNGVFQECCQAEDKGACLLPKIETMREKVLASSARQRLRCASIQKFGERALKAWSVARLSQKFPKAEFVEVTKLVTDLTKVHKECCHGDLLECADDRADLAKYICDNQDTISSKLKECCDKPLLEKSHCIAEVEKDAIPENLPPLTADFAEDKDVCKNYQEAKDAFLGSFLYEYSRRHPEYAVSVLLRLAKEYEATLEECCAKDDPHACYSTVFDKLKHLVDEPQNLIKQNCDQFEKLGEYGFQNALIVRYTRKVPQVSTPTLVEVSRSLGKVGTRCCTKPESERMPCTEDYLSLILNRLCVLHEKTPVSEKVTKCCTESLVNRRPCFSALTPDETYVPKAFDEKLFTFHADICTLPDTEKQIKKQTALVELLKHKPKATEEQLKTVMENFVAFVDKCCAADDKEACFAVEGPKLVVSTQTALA

| Fluorescence Enhancement with SDS (BSA) | Fluorescence Enhancement without SDS (BSA) | Compound | further results |
| --- | --- | --- | --- |
| 140 | 33 | C[n+]1c(/C=C/c2cc3c4c(c2)CCCN4CCC3)sc2cc(S(=O)(=O)N3CCCCC3)ccc21 [Dye 101] |  |
| 10 | None | CCn1c2ccccc2c2cc(/C=C/c3sc4cc(S(=O)(=O)N5CCCCC5)ccc4[n+]3CCCCS(=O)(=O)[O-])ccc21 [Dye 103] |  |
|  |  | CN(C)CCN(C)C1=C/C(=C\c2sc3cc(S(=O)(=O)N4CCCCC4)ccc3[n+]2C)c2ccccc2N1c1ccccc1 [Dye 109] | synthesis of target derived amplicons compared to the reaction without any dye ([1]; 1:25 dilution of Dye 109 stock (OD 200 at 495 nm), lanes 11 and 12): enhancement of overall synthesis of target derived amplicons; synthesis of non-target derived amplicons ([1]; 1:25 dilution of Dye 109 stock, lanes 11 and 12): elimination or suppression of the synthesis of non-target derived amplicons; detection of real time synthesis in the Light Cycler ([1]; data not shown): could be used for this purpose; amplification (gel analysis, FIG. 1) ([1]; undiluted Dye 109 stock (OD 200 at 495 nm), 56 cycles): strong inhibition of amplification; amplicon synthesis (gel analysis, FIG. 2) ([2]; 1:10 dilution of Dye 109, lanes 12 and 13): a single discrete band; amplicon synthesis (gel analysis, FIG. 2) ([2]; 1:15 dilution of Dye 109, lanes 14 and 15): lesser amounts of synthesis; amplicon synthesis (gel analysis, FIG. 2) ([2]; 1:20 and 1:25 dilutions of Dye 109, lanes 16/17 and 18/19): faint bands; non-target amplicon synthesis compared to the no Dye reaction ([2]; 40 cycles, 1:10 dilution of Dye 109): reduced |
| 33 | None | CCCCCCN(CCCCCC)c1ccc(C=Cc2sc3cc(S(=O)(=O)N(CCCCCC)CCCCCC)ccc3[n+]2C)cc1 [Dye 113] |  |
| 70 | 6 | CCCCCCN(CCCCCC)c1ccc(C=Cc2sc3cc(S(=O)(=O)N4CCCCC4)ccc3[n+]2CCCCS(=O)(=O)[O-])cc1 [Dye 114] |  |
|  |  | CN(C)CCN(C)C1=C/C(=C\c2sc3cc(S(=O)(=O)N4CCCCC4)ccc3[n+]2C)c2ccccc2N1c1ccccc1 [Dye 122] | amplification (gel analysis, FIG. 3) ([3]; 1:10 dilution of dye stock (OD=200)): inhibitory; amplification (gel analysis, FIG. 3) ([3]; 1:30 dilution of dye stock (OD=200)): the best; amplification (gel analysis, FIG. 3) ([3]; next dye dilutions (1:100 etc.)): less amplification; amplification (gel analysis, FIG. 4) [4]: strong enhancement effect; amplification product (gel analysis, FIG. 5) (anti-sense C amplicon; Dil 2 (1:1,000,000) target input, 1:30 dilution of dye): strong prominent band; amplification product (gel analysis, FIG. 5) (anti-sense C amplicon; target inputs diluted 10-100× more than Dil 2, 1:30 dilution of dye): visible bands |

| Compound | Fluorescence Enhancement with SDS (BSA) | Fluorescence Enhancement without SDS (BSA) | further results |
| --- | --- | --- | --- |
| CCCCCCN(CCCCCC)c1ccc(C=Cc2cc[n+](CCCP(=O)(OCC)OCC)c3ccccc23)cc1.[Br-] [Dye 115] | 78 | 100 |  |
| CCOP(=O)(CCC[n+]1ccc(C=Cc2ccc3c(c2)c2ccccc2n3CC)c2ccccc21)OCC.[Br-] [Dye 116] | None | 12 |  |
| CCCCN(CCCC)c1ccc(C=Cc2cc[n+](CCCP(=O)(OCC)OCC)c3ccccc23)cc1.[Br-] [Dye 119] | 92 | 95 |  |
